Conditions: 101.33 kPa, Liquid; for mass density: Vibrating tube method; for thermal conductivity: hot wire

CCCC[N+]1(C)CCCC1.N#CN=C=[N-] [1-butyl-1-methylpyrrolidinium dicyanamide]
Conditions | mass density [kg/m3] | thermal conductivity [W/m/K]
293.2 K | 1018.3 | –
293.5 K | – | 0.155
303.2 K | 1011.8 | 0.155
313.2 K | 1006.1 | –
313.3 K | – | 0.153
323.2 K | 1000.6 | –
323.3 K | – | 0.151
333.2 K | 995.6 | 0.147
343.2 K | 991.3 | –
343.4 K | – | 0.142

CCn1cc[n+](C)c1.N#CN=C=[N-] [1-ethyl-3-methylimidazolium dicyanamide]
Conditions | mass density [kg/m3] | thermal conductivity [W/m/K]
293.2 K | 1107.5 | –
293.4 K | – | 0.183
303.2 K | 1100.4 | –
303.3 K | – | 0.179
313.1 K | – | 0.178
313.2 K | 1093.5 | –
323 K | – | 0.181
323.2 K | 1087 | –
333.2 K | 1081 | 0.17
343.2 K | 1076.1 | –
343.4 K | – | 0.165

CCCCn1cc[n+](C)c1.N#CN=C=[N-] [1-butyl-3-methylimidazolium dicyanamide]
Conditions | mass density [kg/m3] | thermal conductivity [W/m/K]
293.2 K | 1064.5 | –
293.6 K | – | 0.167
303.2 K | 1057.5 | –
303.3 K | – | 0.166
313.2 K | 1051 | –
313.4 K | – | 0.163
323.2 K | 1045.1 | –
323.5 K | – | 0.163
333.2 K | 1040.6 | –
333.7 K | – | 0.153
343.2 K | 1035.7 | –
344.2 K | – | 0.15

From the NIST ThermoML archive (doi:10.1016/j.jct.2014.05.008)
